Measurements published in US20150105252A1, “SUBSTITUTED PYRAZOLES AS HERBICIDES” (E I DU PONT DE NEMOURS AND COMPANY, priority 2013, published 2015).

Tests used:
Conditions in all cases: scale 0 to 100
ryegrass, Italian = test: Test D postemergence; type: in vivo, Lolium multiflorum
Excerpt: (§1) Seeds of plant species selected from bluegrass (annual bluegrass, Poa annua), blackgrass (Alopecurus myosuroides), canarygrass (littleseed canarygrass, Phalaris minor), chickweed (common chickweed, Stellaria media), galium (catchweed bedstraw, Galium aparine), bromegrass, downy (downy bromegrass, Bromus tectorum), field poppy (Papaver rhoeas), field violet (Viola arvensis), foxtail, green (green foxtail, Setaria viridis), deadnettle (henbit deadnettle, Lamium amplexicaule), ryegrass, Italian (Italian ryegrass, Lolium multiflorum), kochia (Kochia scoparia), lambsquarters (Chenopodium album), oilseed rape (Brassica napus), pigweed (redroot pigweed, Amaranthus retroflexus), chamomile (scentless chamomile, Matricaria inodora), speedwell (bird's-eye speedwell, Veronica persica), barley, spring (spring barley, Hordeum vulgare), wheat, spring (spring wheat, Triticum aestivum), buckwheat, wild (wild buckwheat, Polygonum convolvulus), mustard, wild (wild mustard, Sinapis arvensis), oat, wild (wild oat, Avena fatua), radish, wild (wild radish, Raphanus raphanistrum), windgrass (Apera spica-venti), Russian thistle (Salsola kali), barley, winter (winter barley, Hordeum vulgare), and wheat, winter (winter wheat, Triticum aestivum) were planted into a silt loam soil and treated preemergence with test chemicals formulated in a non-phytotoxic solvent mixture which included a surfactant.
(§2) At the same time, these species were planted in pots containing Redi-Earth® planting medium (Scotts Company, 14111 Scottslawn Road, Marysville, Ohio 43041) comprising spaghnum peat moss, vermiculite, wetting agent and starter nutrients and treated with postemergence applications of the test chemicals formulated in the same manner. Plants ranged in height from 2 to 18 cm (1- to 4-leaf stage). Treated plants and controls were maintained in a controlled growth environment for 14 to 21 days after which time all species were compared to controls and visually evaluated. Plant response ratings, summarized in Table D, are based on a scale of 0 to 100 where 0 is no effect and 100 is complete control. A dash (-) response means no test result.

field violet = test: Test D preemergence; type: in vivo, Viola arvensis
Excerpt: as §1, §2

oilseed rape = test: Test D preemergence; type: in vivo, Brassica napus
Excerpt: as §1, §2

lambsquarters = test: Test D postemergence; type: in vivo, Chenopodium album
Excerpt: as §1, §2

blackgrass = test: Test D postemergence; type: in vivo, Alopecurus myosuroides
Excerpt: as §1, §2

foxtail, green = test: Test D preemergence; type: in vivo, Setaria viridis
Excerpt: as §1, §2

field poppy = test: Test D preemergence; type: in vivo, Papaver rhoeas
Excerpt: as §1, §2

windgrass = test: Test D postemergence; type: in vivo, Apera spica-venti
Excerpt: as §1, §2

chamomile = test: Test D postemergence; type: in vivo, Matricaria inodora
Excerpt: as §1, §2

radish, wild = test: Test D preemergence; type: in vivo, Raphanus raphanistrum
Excerpt: as §1, §2

## CCc1cc(C(=O)NC(C)C)nn1Cc1ccnc(C(F)(F)F)c1 [Compound 103]
ryegrass, Italian; Postemergence, 31 g ai/ha
  Ryegrass, Italian plant response rating: 5
ryegrass, Italian; Postemergence, 125 g ai/ha
  Ryegrass, Italian plant response rating: 5
ryegrass, Italian; Postemergence, 250 g ai/ha
  Ryegrass, Italian plant response rating: 35
ryegrass, Italian; postemergence, 62 g ai/ha
  Ryegrass, Italian plant response rating: 5
Field violet; 31 g ai/ha
  Plant response rating, Field Violet: 95
Field violet; 62 g ai/ha
  Plant response rating, Field Violet: 100
Field violet; 125 g ai/ha
  Plant response rating, Field Violet: 100
Field violet; 250 g ai/ha
  Plant response rating, Field Violet: 100
Oilseed rape; 31 g ai/ha
  Plant response rating, Oilseed Rape: 25
Oilseed rape; 62 g ai/ha
  Plant response rating, Oilseed Rape: 30
Oilseed rape; 125 g ai/ha
  Plant response rating, Oilseed Rape: 35
Oilseed rape; 250 g ai/ha
  Plant response rating, Oilseed Rape: 95
lambsquarters; Postemergence, 31 g ai/ha
  Lambsquarters plant response rating: 35
lambsquarters; Postemergence, 125 g ai/ha
  Lambsquarters plant response rating: 40
lambsquarters; Postemergence, 250 g ai/ha
  Lambsquarters plant response rating: 60
lambsquarters; postemergence, 62 g ai/ha
  Lambsquarters plant response rating: 30
blackgrass; Postemergence, 31 g ai/ha
  Blackgrass plant response rating: 5
blackgrass; Postemergence, 125 g ai/ha
  Blackgrass plant response rating: 20
blackgrass; Postemergence, 250 g ai/ha
  Blackgrass plant response rating: 35
blackgrass; postemergence, 62 g ai/ha
  Blackgrass plant response rating: 10
foxtail, green; 31 g ai/ha
  Plant response rating, Foxtail, Green: 20
foxtail, green; 62 g ai/ha
  Plant response rating, Foxtail, Green: 100
foxtail, green; 125 g ai/ha
  Plant response rating, Foxtail, Green: 100
foxtail, green; 250 g ai/ha
  Plant response rating, Foxtail, Green: 100
Field poppy; 31 g ai/ha
  Plant response rating, Field Poppy: 100
Field poppy; 62 g ai/ha
  Plant response rating, Field Poppy: 100
Field poppy; 125 g ai/ha
  Plant response rating, Field Poppy: 100
Field poppy; 250 g ai/ha
  Plant response rating, Field Poppy: 100
windgrass; Postemergence, 31 g ai/ha
  Windgrass plant response rating: 10
windgrass; Postemergence, 125 g ai/ha
  Windgrass plant response rating: 25
windgrass; Postemergence, 250 g ai/ha
  Windgrass plant response rating: 35
windgrass; postemergence, 62 g ai/ha
  Windgrass plant response rating: 20
chamomile; Postemergence, 31 g ai/ha
  Chamomile plant response rating: 10
chamomile; Postemergence, 125 g ai/ha
  Chamomile plant response rating: 30
chamomile; Postemergence, 250 g ai/ha
  Chamomile plant response rating: 60
chamomile; postemergence, 62 g ai/ha
  Chamomile plant response rating: 30
radish, wild; 31 g ai/ha
  Plant response rating, Radish, Wild: 95
radish, wild; 62 g ai/ha
  Plant response rating, Radish, Wild: 100
radish, wild; 125 g ai/ha
  Plant response rating, Radish, Wild: 100
radish, wild; 250 g ai/ha
  Plant response rating, Radish, Wild: 100

## CCCc1cc(C(=O)NCC(F)(F)F)nn1Cc1cc(C(F)(F)F)nn1C [Compound 138]
ryegrass, Italian; Postemergence, 31 g ai/ha
  Ryegrass, Italian plant response rating: 15
ryegrass, Italian; Postemergence, 125 g ai/ha
  Ryegrass, Italian plant response rating: 15
ryegrass, Italian; Postemergence, 250 g ai/ha
  Ryegrass, Italian plant response rating: 55
ryegrass, Italian; postemergence, 62 g ai/ha
  Ryegrass, Italian plant response rating: 15
Field violet; 62 g ai/ha
  Plant response rating, Field Violet: 100
Field violet; 125 g ai/ha
  Plant response rating, Field Violet: 100
Field violet; 250 g ai/ha
  Plant response rating, Field Violet: 100
Oilseed rape; 62 g ai/ha
  Plant response rating, Oilseed Rape: 40
Oilseed rape; 125 g ai/ha
  Plant response rating, Oilseed Rape: 100
Oilseed rape; 250 g ai/ha
  Plant response rating, Oilseed Rape: 100
lambsquarters; Postemergence, 31 g ai/ha
  Lambsquarters plant response rating: 80
lambsquarters; Postemergence, 125 g ai/ha
  Lambsquarters plant response rating: 80
lambsquarters; Postemergence, 250 g ai/ha
  Lambsquarters plant response rating: 80
lambsquarters; postemergence, 62 g ai/ha
  Lambsquarters plant response rating: 80
blackgrass; Postemergence, 31 g ai/ha
  Blackgrass plant response rating: 25
blackgrass; Postemergence, 125 g ai/ha
  Blackgrass plant response rating: 40
blackgrass; Postemergence, 250 g ai/ha
  Blackgrass plant response rating: 75
blackgrass; postemergence, 62 g ai/ha
  Blackgrass plant response rating: 25
foxtail, green; 62 g ai/ha
  Plant response rating, Foxtail, Green: 100
foxtail, green; 125 g ai/ha
  Plant response rating, Foxtail, Green: 100
foxtail, green; 250 g ai/ha
  Plant response rating, Foxtail, Green: 100
Field poppy; 62 g ai/ha
  Plant response rating, Field Poppy: 100
Field poppy; 125 g ai/ha
  Plant response rating, Field Poppy: 100
Field poppy; 250 g ai/ha
  Plant response rating, Field Poppy: 100
windgrass; Postemergence, 31 g ai/ha
  Windgrass plant response rating: 20
windgrass; Postemergence, 125 g ai/ha
  Windgrass plant response rating: 35
windgrass; Postemergence, 250 g ai/ha
  Windgrass plant response rating: 60
windgrass; postemergence, 62 g ai/ha
  Windgrass plant response rating: 20
chamomile; Postemergence, 31 g ai/ha
  Chamomile plant response rating: 50
chamomile; Postemergence, 125 g ai/ha
  Chamomile plant response rating: 60
chamomile; Postemergence, 250 g ai/ha
  Chamomile plant response rating: 65
chamomile; postemergence, 62 g ai/ha
  Chamomile plant response rating: 50
radish, wild; 62 g ai/ha
  Plant response rating, Radish, Wild: 100
radish, wild; 125 g ai/ha
  Plant response rating, Radish, Wild: 100
radish, wild; 250 g ai/ha
  Plant response rating, Radish, Wild: 100

## CCOc1cc(C(=O)NC2CC2)nn1Cc1ccnc(C(F)(F)F)c1 [Compound 189]
ryegrass, Italian; Postemergence, 31 g ai/ha
  Ryegrass, Italian plant response rating: 10
ryegrass, Italian; Postemergence, 125 g ai/ha
  Ryegrass, Italian plant response rating: 20
ryegrass, Italian; Postemergence, 250 g ai/ha
  Ryegrass, Italian plant response rating: 30
ryegrass, Italian; postemergence, 62 g ai/ha
  Ryegrass, Italian plant response rating: 10
Field violet; 62 g ai/ha
  Plant response rating, Field Violet: 100
Field violet; 125 g ai/ha
  Plant response rating, Field Violet: 100
Field violet; 250 g ai/ha
  Plant response rating, Field Violet: 100
Oilseed rape; 62 g ai/ha
  Plant response rating, Oilseed Rape: 55
Oilseed rape; 125 g ai/ha
  Plant response rating, Oilseed Rape: 80
Oilseed rape; 250 g ai/ha
  Plant response rating, Oilseed Rape: 100
lambsquarters; Postemergence, 31 g ai/ha
  Lambsquarters plant response rating: 75
lambsquarters; Postemergence, 125 g ai/ha
  Lambsquarters plant response rating: 80
lambsquarters; Postemergence, 250 g ai/ha
  Lambsquarters plant response rating: 90
lambsquarters; postemergence, 62 g ai/ha
  Lambsquarters plant response rating: 75
blackgrass; Postemergence, 31 g ai/ha
  Blackgrass plant response rating: 10
blackgrass; Postemergence, 125 g ai/ha
  Blackgrass plant response rating: 15
blackgrass; Postemergence, 250 g ai/ha
  Blackgrass plant response rating: 20
blackgrass; postemergence, 62 g ai/ha
  Blackgrass plant response rating: 10
foxtail, green; 62 g ai/ha
  Plant response rating, Foxtail, Green: 100
foxtail, green; 125 g ai/ha
  Plant response rating, Foxtail, Green: 100
foxtail, green; 250 g ai/ha
  Plant response rating, Foxtail, Green: 100
Field poppy; 62 g ai/ha
  Plant response rating, Field Poppy: 100
Field poppy; 125 g ai/ha
  Plant response rating, Field Poppy: 100
Field poppy; 250 g ai/ha
  Plant response rating, Field Poppy: 100
windgrass; Postemergence, 31 g ai/ha
  Windgrass plant response rating: 15
windgrass; Postemergence, 125 g ai/ha
  Windgrass plant response rating: 20
windgrass; Postemergence, 250 g ai/ha
  Windgrass plant response rating: 35
windgrass; postemergence, 62 g ai/ha
  Windgrass plant response rating: 15
chamomile; Postemergence, 31 g ai/ha
  Chamomile plant response rating: 55
chamomile; Postemergence, 125 g ai/ha
  Chamomile plant response rating: 60
chamomile; Postemergence, 250 g ai/ha
  Chamomile plant response rating: 65
chamomile; postemergence, 62 g ai/ha
  Chamomile plant response rating: 55
radish, wild; 62 g ai/ha
  Plant response rating, Radish, Wild: 70
radish, wild; 125 g ai/ha
  Plant response rating, Radish, Wild: 100
radish, wild; 250 g ai/ha
  Plant response rating, Radish, Wild: 100
